In US11214594B2, “Antimicrobial peptide having synergistic antibacterial effect with antibiotics on multidrug resistant bacteria, and use thereof” (priority 2016, dated 2022):
Converted amounts (≈) assume the structure as drawn. Read-outs that look alike come from different tables or passages of the source. Where a SMILES comes first, the peptide text is derived from it.

Assays:
[1] = system: A. baumannii; experiment: MIC of antimicrobial peptide during combined treatment with antibiotic; type: cell-based, Acinetobacter baumannii
Method in brief: (§1)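 Broth microdilution in MH medium; strains were diluted to 2×10^6 CFU per ml before plating. Peptide was serially diluted stepwise at 2:1 starting from its MIC, and MH-diluted antibiotic was then added to determine MIC. The reversed arrangement was also tested.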

[2] = system: MDRAB 12035; experiment: as above; type: cell-based, Acinetobacter baumannii
Method in brief: as §1

[3] = system: MDRAB 12036; type: cell-based, Acinetobacter baumannii
Method in brief: (§2)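 Each strain is brought to 2×10^6 CFU in nutrient-sufficient Mueller-Hinton medium and dispensed into wells. Peptide solutions, stepwise diluted 2:1 in the same medium, are then added. The minimal concentration preventing growth gives the MIC.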

[4] = system: B. subtilis; experiment: microbe, parasite or virus in culture; type: cell-based, Bacillus subtilis
Method in brief: as §2

[5] = system: MDREC 1229; experiment: MIC of antibiotic during combined treatment with antimicrobial peptide; type: cell-based, Escherichia coli
Method in brief: as §1

[6] = system: A. baumannii; experiment: as above; type: cell-based, Acinetobacter baumannii; settings: for Antibiotic MIC, Erythromycin / Antibiotic MIC, Linezolid / Antibiotic MIC, Vancomycin: A. baumannii
Method in brief: (§3)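 First, antibiotic solution is diluted with MH medium; next, the dilution is dispensed into wells containing peptide; finally, the orientation is swapped and MIC of each mixture determined.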

[7] = system: E. coli; experiment: as above; type: cell-based, Escherichia coli; settings: for Antibiotic MIC, Erythromycin / Antibiotic MIC, Linezolid / Antibiotic MIC, Vancomycin: E. coli
Method in brief: as §3

[8] = system: MDREC 1229; type: cell-based, Escherichia coli
Method in brief: as §1

[9] = system: E. coli; type: cell-based, Escherichia coli; settings: E. coli
Method in brief: as §1

[10] = system: MDRST 8007; experiment: Minimal inhibitory concentration (MIC), single agent; type: cell-based, Salmonella typhimurium; settings: agent alone
Method in brief: as §2

[11] = system: S. aureus; experiment: microbe, parasite or virus in culture; type: cell-based, Staphylococcus aureus
Method in brief: as §2

[12] = system: MDREC 1229; experiment: microbe, parasite or virus in culture; type: cell-based, Escherichia coli
Method in brief: as §2

[13] = system: E. coli; experiment: microbe, parasite or virus in culture; type: cell-based, Escherichia coli
Method in brief: as §2

[14] = erythromycin 4 μg/ml (Conc./MIC 1/8)
[15] = erythromycin 8 μg/ml (Conc./MIC 1/4)
[16] = erythromycin 16 μg/ml (Conc./MIC 1/2)
[17] = erythromycin 32 μg/ml (Conc./MIC 1)
[18] = vancomycin 512 μg/ml (Conc./MIC 1/2)
[19] = vancomycin 1024 μg/ml (Conc./MIC 1)
[20] = peptide treatment concentration 1 μg/ml
[21] = peptide treatment concentration 2 μg/ml
[22] = peptide treatment concentration 4 μg/ml
[23] = peptide treatment concentration 6 μg/ml
[24] = peptide treatment concentration 8 μg/ml
[25] = peptide treatment concentration 16 μg/ml
[26] = peptide treatment concentration 32 μg/ml
[27] = peptide treatment concentration 64 μg/ml
[28] = combined with peptide at 1 μg/ml
[29] = combined with peptide at 2 μg/ml
[30] = combined with peptide at 4 μg/ml
[31] = combined with peptide at 6 μg/ml
[32] = combined with peptide at 8 μg/ml
[33] = combined with peptide at 16 μg/ml
[34] = combined with peptide at 32 μg/ml
[35] = combined with peptide at 64 μg/ml
[36] = with Erythromycin […] (Conc./MIC 1)

CC[C@H](C)[C@H](NC(=O)[C@H](CCCCN)NC(=O)[C@H](Cc1c[nH]c2ccccc12)NC(=O)[C@@H](N)CCCNC(=N)N)C(=O)N[C@@H](Cc1ccccc1)C(=O)N[C@@H](CCCCN)C(=O)N[C@@H](CCCCN)C(=O)N[C@H](C(=O)N1CCC[C@H]1C(=O)N[C@@H](CCCCN)C(=O)N[C@@H](CC(C)C)C(=O)N[C@@H](CC(C)C)C(=O)N[C@@H](Cc1c[nH]cn1)C(=O)N[C@@H](CO)C(=O)N[C@@H](CC(C)C)C(=O)N[C@@H](CCCCN)C(=O)N[C@@H](CCCCN)C(=O)N[C@@H](Cc1ccccc1)C(N)=O)[C@@H](C)CC [PapMA-8, RWK IFK KIP KLL HSL KKF-NH2] (H-RWKIFKKIPKLLHSLKKF-NH2; N-terminus assumed)
Peptide MIC during treatment with antibiotic [1, 14]: 4 µg/mL | Peptide MIC during treatment with antibiotic [1, 15]: 4 µg/mL | Peptide MIC during treatment with antibiotic [1, 16]: 2 µg/mL | Peptide MIC during treatment with antibiotic [1, 17]: 0 µg/mL | Peptide MIC during treatment with antibiotic ([1]; linezolid 32 μg/ml (Conc./MIC 1/8)): 4 µg/mL | Peptide MIC during treatment with antibiotic ([1]; linezolid 64 μg/ml (Conc./MIC 1/4)): 2 µg/mL | Peptide MIC during treatment with antibiotic ([1]; linezolid […] (Conc./MIC 1)): 0 µg/mL | Peptide MIC during treatment with antibiotic ([1]; linezolid […] (Conc./MIC 1/2)): 2 µg/mL | Peptide MIC during treatment with antibiotic [1, 18]: 1 µg/mL | Peptide MIC during treatment with antibiotic [1, 19]: 0 µg/mL | Peptide MIC during treatment with antibiotic ([1]; vancomycin […] (Conc./MIC 1/4)): 1 µg/mL | Peptide MIC during treatment with antibiotic ([1]; vancomycin […] (Conc./MIC 1/8)): 4 µg/mL | Peptide MIC during treatment with erythromycin [2, 14]: 8 µg/mL | Peptide MIC during treatment with erythromycin [2, 15]: 8 µg/mL | Peptide MIC during treatment with erythromycin [2, 16]: 4 µg/mL | Peptide MIC during treatment with erythromycin [2, 17]: 0 µg/mL | Peptide MIC during treatment with linezolid ([2]; linezolid 64 μg/ml (Conc./MIC 1/8)): 4 µg/mL | Peptide MIC during treatment with linezolid ([2]; linezolid 512 μg/ml (Conc./MIC 1)): 0 µg/mL | Peptide MIC during treatment with linezolid ([2]; linezolid […] (Conc./MIC 1/2)): 1 µg/mL | Peptide MIC during treatment with linezolid ([2]; linezolid […] (Conc./MIC 1/4)): 2 µg/mL | Peptide MIC during treatment with vancomycin [2, 18]: 2 µg/mL | Peptide MIC during treatment with vancomycin [2, 19]: 1 µg/mL | Peptide MIC during treatment with vancomycin ([2]; vancomycin […] (Conc./MIC 1/4)): 2 µg/mL | Peptide MIC during treatment with vancomycin ([2]; vancomycin […] (Conc./MIC 1/8)): 4 µg/mL | Minimal inhibitory concentration MIC [3]: 64 µg/mL (≈ 27.7 µM) | Minimal inhibitory concentration MIC [4]: >128 µg/mL | Antibiotic MIC, Erythromycin [5, 20]: >128 µg/mL | Antibiotic MIC, Linezolid [5, 20]: >128 µg/mL | Antibiotic MIC, Vancomycin [5, 20]: >128 µg/mL | Antibiotic MIC, Erythromycin [5, 21]: 64 µg/mL | Antibiotic MIC, Linezolid [5, 21]: >128 µg/mL | Antibiotic MIC, Vancomycin [5, 21]: >128 µg/mL | Antibiotic MIC, Erythromycin [5, 22]: 8 µg/mL | Antibiotic MIC, Linezolid [5, 22]: 128 µg/mL | Antibiotic MIC, Vancomycin [5, 22]: >128 µg/mL | Antibiotic MIC, Erythromycin [5, 23]: 4 µg/mL | Antibiotic MIC, Linezolid [5, 23]: 32 µg/mL | Antibiotic MIC, Vancomycin [5, 23]: >128 µg/mL | Antibiotic MIC, Erythromycin [5, 24]: 1 µg/mL | Antibiotic MIC, Linezolid [5, 24]: 32 µg/mL | Antibiotic MIC, Vancomycin [5, 24]: 32 µg/mL | Antibiotic MIC, Erythromycin [5, 25]: 0.5 µg/mL | Antibiotic MIC, Linezolid [5, 25]: 16 µg/mL | Antibiotic MIC, Vancomycin [5, 25]: 16 µg/mL | Antibiotic MIC, Erythromycin [5, 26]: 0.125 µg/mL | Antibiotic MIC, Linezolid [5, 26]: 8 µg/mL | Antibiotic MIC, Vancomycin [5, 26]: 8 µg/mL | Antibiotic MIC, Erythromycin [5, 27]: 0 µg/mL | Antibiotic MIC, Linezolid [5, 27]: 0 µg/mL | Antibiotic MIC, Vancomycin [5, 27]: 0 µg/mL | Synergistic effect of antibacterial activity with existing antibiotics compared with PapMA-1 ([6]; A. baumannii and MDRAB 12035): higher level than the PapMA-1 peptide | Antibiotic MIC, Erythromycin [6, 28]: 32 µg/mL | Antibiotic MIC, Linezolid [6, 28]: >128 µg/mL | Antibiotic MIC, Vancomycin [6, 28]: >128 µg/mL | Antibiotic MIC, Erythromycin [6, 29]: 8 µg/mL | Antibiotic MIC, Linezolid [6, 29]: 64 µg/mL | Antibiotic MIC, Vancomycin [6, 29]: >128 µg/mL | Antibiotic MIC, Erythromycin [6, 30]: 4 µg/mL | Antibiotic MIC, Linezolid [6, 30]: 32 µg/mL | Antibiotic MIC, Vancomycin [6, 30]: 32 µg/mL | Antibiotic MIC, Erythromycin [6, 31]: 4 µg/mL | Antibiotic MIC, Linezolid [6, 31]: 16 µg/mL | Antibiotic MIC, Vancomycin [6, 31]: 16 µg/mL | Antibiotic MIC, Erythromycin [6, 32]: 0.25 µg/mL | Antibiotic MIC, Linezolid [6, 32]: 4 µg/mL | Antibiotic MIC, Vancomycin [6, 32]: 8 µg/mL | Antibiotic MIC, Erythromycin [6, 33]: 0.125 µg/mL | Antibiotic MIC, Linezolid [6, 33]: 1 µg/mL | Antibiotic MIC, Vancomycin [6, 33]: 4 µg/mL | Antibiotic MIC, Erythromycin [6, 34]: 0 µg/mL | Antibiotic MIC, Linezolid [6, 34]: 0 µg/mL | Antibiotic MIC, Vancomycin [6, 34]: 0 µg/mL | Antibiotic MIC, Erythromycin [6, 35]: 0 µg/mL | Antibiotic MIC, Linezolid [6, 35]: 0 µg/mL | Antibiotic MIC, Vancomycin [6, 35]: 0 µg/mL | Synergistic effect of antibacterial activity with existing antibiotics compared with PapMA-1 ([7]; E. coli and MDREC1229): higher level than the PapMA-1 peptide | Antibiotic MIC, Erythromycin ([7]; erythromycin combined with peptide at 1 μg/ml): 128 µg/mL | Antibiotic MIC, Erythromycin ([7]; erythromycin combined with peptide at 2 μg/ml): 64 µg/mL | Antibiotic MIC, Erythromycin ([7]; erythromycin combined with peptide at 4 μg/ml): 8 µg/mL | Antibiotic MIC, Erythromycin ([7]; erythromycin combined with peptide at 6 μg/ml): 4 µg/mL | Antibiotic MIC, Erythromycin ([7]; erythromycin combined with peptide at 8 μg/ml): 0.5 µg/mL | Antibiotic MIC, Erythromycin ([7]; erythromycin combined with peptide at 16 μg/ml): 0.25 µg/mL | Antibiotic MIC, Erythromycin ([7]; erythromycin combined with peptide at 32 μg/ml): 0 µg/mL | Antibiotic MIC, Erythromycin ([7]; erythromycin combined with peptide at 64 μg/ml): 0 µg/mL | Antibiotic MIC, Linezolid ([7]; linezolid combined with peptide at 1 μg/ml): >128 µg/mL | Antibiotic MIC, Linezolid ([7]; linezolid combined with peptide at 2 μg/ml): >128 µg/mL | Antibiotic MIC, Linezolid ([7]; linezolid combined with peptide at 4 μg/ml): 128 µg/mL | Antibiotic MIC, Linezolid ([7]; linezolid combined with peptide at 6 μg/ml): 32 µg/mL | Antibiotic MIC, Linezolid ([7]; linezolid combined with peptide at 8 μg/ml): 8 µg/mL | Antibiotic MIC, Linezolid ([7]; linezolid combined with peptide at 16 μg/ml): 2 µg/mL | Antibiotic MIC, Linezolid ([7]; linezolid combined with peptide at 32 μg/ml): 0 µg/mL | Antibiotic MIC, Linezolid ([7]; linezolid combined with peptide at 64 μg/ml): 0 µg/mL | Antibiotic MIC, Vancomycin ([7]; vancomycin combined with peptide at 1 μg/ml): >128 µg/mL | Antibiotic MIC, Vancomycin ([7]; vancomycin combined with peptide at 2 μg/ml): >128 µg/mL | Antibiotic MIC, Vancomycin ([7]; vancomycin combined with peptide at 4 μg/ml): 64 µg/mL | Antibiotic MIC, Vancomycin ([7]; vancomycin combined with peptide at 6 μg/ml): 32 µg/mL | Antibiotic MIC, Vancomycin ([7]; vancomycin combined with peptide at 8 μg/ml): 16 µg/mL | Antibiotic MIC, Vancomycin ([7]; vancomycin combined with peptide at 16 μg/ml): 2 µg/mL | Antibiotic MIC, Vancomycin ([7]; vancomycin combined with peptide at 32 μg/ml): 0 µg/mL | Antibiotic MIC, Vancomycin ([7]; vancomycin combined with peptide at 64 μg/ml): 0 µg/mL | Peptide MIC [8, 36]: 0 µg/mL | Peptide MIC ([8]; with Linezolid 512 μg/ml (Conc./MIC 1)): 0 µg/mL | Peptide MIC [9, 36]: 0 µg/mL | Peptide MIC ([9]; with Linezolid […] (Conc./MIC 1)): 0 µg/mL | Peptide MIC ([9]; with Vancomycin 1024 μg/ml (Conc./MIC 1)): 0 µg/mL | Minimal inhibitory concentration MIC [10]: 64 µg/mL (≈ 27.7 µM) | Minimal inhibitory concentration MIC [11]: >128 µg/mL | Minimal inhibitory concentration MIC [12]: 64 µg/mL (≈ 27.7 µM) | Minimal inhibitory concentration MIC ([13]; 16 h): 32 µg/mL (≈ 13.9 µM) | Antibacterial activity relative to PapMA-1 ([13]; E. coli): at least twice as high
